Data reported in ChEMBL document CHEMBL1127400 (J Med Chem, 1994).

Tests used:
[1] = target: T1, Sodium-dependent dopamine transporter (Rattus norvegicus, UniProt P23977); assay: Binding affinity was determined against cocaine receptor by measuring the ability of compound to displace bound [3H]-3 from rat caudate-putamen tissue; format: tissue-based
[2] = target: T1, Sodium-dependent dopamine transporter; assay: Binding affinity was determined against cocaine binding site by measuring the ability of compound to displace bound [3H]dopamine from rat caudate-putamen tissue; format: tissue-based
[3] = target: T1, Sodium-dependent dopamine transporter; assay: Tested for its ability to inhibit high affinity uptake of [3H]dopamine into rat caudate-putamen tissue; format: tissue-based
[4] = Tested for its ability to inhibit high affinity uptake of [3H]-dopamine into rat caudate-putamen tissue; format: functional, tissue-based

T1 sequence (P23977 whole entry): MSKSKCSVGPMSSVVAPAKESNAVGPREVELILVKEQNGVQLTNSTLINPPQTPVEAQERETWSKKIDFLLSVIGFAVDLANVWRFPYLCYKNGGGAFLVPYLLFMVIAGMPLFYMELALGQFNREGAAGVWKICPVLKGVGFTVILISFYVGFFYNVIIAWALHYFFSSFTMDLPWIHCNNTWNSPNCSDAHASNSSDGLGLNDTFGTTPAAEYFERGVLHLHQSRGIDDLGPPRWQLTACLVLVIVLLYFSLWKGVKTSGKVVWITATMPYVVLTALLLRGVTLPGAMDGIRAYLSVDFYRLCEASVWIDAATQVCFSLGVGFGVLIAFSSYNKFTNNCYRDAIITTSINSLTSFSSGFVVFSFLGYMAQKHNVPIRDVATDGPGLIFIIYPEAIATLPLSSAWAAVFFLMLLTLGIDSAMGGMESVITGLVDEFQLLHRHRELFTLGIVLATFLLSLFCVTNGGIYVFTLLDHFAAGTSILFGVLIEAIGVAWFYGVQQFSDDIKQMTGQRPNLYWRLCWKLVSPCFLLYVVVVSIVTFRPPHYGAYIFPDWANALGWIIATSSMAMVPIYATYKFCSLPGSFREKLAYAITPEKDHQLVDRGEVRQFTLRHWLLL

| SMILES | Ki [1] [nM] | Ki [2] [nM] | IC50 [3] [nM] | IC50 [4] [nM] |
| --- | --- | --- | --- | --- |
| COC(=O)[C@@H]1C2CC[C@H](C[C@@H]1c1ccccc1)N2C | 314 | 33 | 373 |  |
| CN1C2CC[C@@H]1C[C@H](c1ccccc1)C2CC/C=C/C(=O)O (stereo partly drawn) |  | 20 |  | 203 |
| CN1C2CC[C@@H]1C[C@H](c1ccccc1)C2CCCO (stereo partly drawn) |  | 11 | 64 |  |
| COC(=O)CCC1C2CC[C@H](C[C@@H]1c1ccccc1)N2C (stereo partly drawn) |  | 23 | 166 |  |
| COC(=O)/C=C/C1C2CC[C@H](C[C@@H]1c1ccccc1)N2C (stereo partly drawn) |  | 22 | 123 |  |
| CN1C2CC[C@@H]1C[C@H](c1ccccc1)C2/C=C/CO (stereo partly drawn) |  | 26 |  | 159 |
